{"source": "patent US11001595B2", "about": "“Pyrimidine compounds and pyrimido indole compounds and methods of use” (Duquesne University of the Holy Spirit, priority 2014, dated 2021)", "key": {"[1]": {"tested_on": "SK-OV-3 MDR-1-6/6 cells (P-gp expressing)", "conditions": "cited from earlier work"}, "[2]": {"tested_on": "HeLa WTβ-III cells (β-III tubulin expressing)", "conditions": "cited from earlier work"}, "HeLa cells [3]": {"tested_on": "HeLa cells", "conditions": "Table 3, parental line; cited from earlier work"}, "SK-OV-3 cells [4]": {"tested_on": "SK-OV-3 cells", "conditions": "Table 2, parental line; cited from earlier work"}, "MDA-MB-435 cells": {"tested_on": "MDA-MB-435 cells", "assay": "Inhibition of cell proliferation, MDA-MB-435 (Section A)", "format": "cell-based, human", "conditions": "Table 4; read-out: IC50 ± SD in MDA-MB-435 Cells"}, "[5]": {"tested_on": "βIII Overexpressing HeLa cells", "assay": "Antiproliferative effect, βIII overexpressing HeLa, SRB assay (Section E)", "format": "cell-based, human", "conditions": "for Rr: IC50 of β-III overexpressing HeLa divided by IC50 of parental HeLa; for IC50: SRB assay, read-out: IC50 ± SD βIII Overexpressing HeLa"}, "[6]": {"tested_on": "microtubules in A-10 cells", "assay": "Microtubule depolymerization in A-10 cells (Section A)", "format": "cell-based", "conditions": "Table 4, unit of column head (CA-4 row)"}, "[7]": {"tested_on": "HeLa WTβ-III cells (β-III tubulin expressing)", "assay": "Effect of β-III tubulin on drug sensitivity, HeLa WT β-III (Section A)", "format": "cell-based", "conditions": "for Rr: Table 6, relative resistance HeLa WTβ-III vs HeLa"}, "Wild type HeLa cells": {"tested_on": "Wild type HeLa cells", "assay": "Antiproliferative effect, wild type HeLa, SRB assay (Section E)", "format": "cell-based, human", "conditions": "read-out: IC50 ± SD Wild type HeLa"}, "OVCAR-8 cells": {"tested_on": "OVCAR-8 cells", "assay": "Antiproliferative effect, parental OVCAR-8, SRB assay (Section E)", "format": "cell-based, human"}, "[8]": {"tested_on": "NCl/ADR-RES cells (Pgp overexpressing)", "assay": "Antiproliferative effect, Pgp overexpressing NCI/ADR-RES, SRB assay (Section E)", "conditions": "for Rr: IC50 of Pgp overexpressing line divided by IC50 of parental OVCAR-8; for IC50: read-out: IC50 ± SD Pgp Overexpressing NCl/ADR-RES"}, "[9]": {"tested_on": "SK-OV-3 MDR-1-6/6 cells (P-gp expressing)", "conditions": "Table 5, relative resistance SK-OV-3 MDR-1-6/6 vs SK-OV-3"}, "HeLa cells [10]": {"tested_on": "HeLa cells", "assay": "Drug sensitivity in HeLa cells (Section A)", "format": "cell-based", "conditions": "Homo sapiens, Table 6, parental line, read-out: IC50 ± SD in HeLa"}, "SK-OV-3 cells [11]": {"tested_on": "SK-OV-3 cells", "assay": "Drug sensitivity in parental SK-OV-3 cells (Section A)", "format": "cell-based", "conditions": "Homo sapiens, Table 5, parental line"}, "recombinant pjDHFR": {"molecular_target": "recombinant pjDHFR (Pneumocystis jirovecii (Human pneumocystis pneumonia agent), UniProt Q9UUP5)", "assay": "Inhibition of recombinant pjDHFR", "format": "biochemical", "conditions": "37° C., 18 μM dihydrofolic acid"}}, "note": "Like-named read-outs stand apart in the source and are kept apart here.", "data": [{"smiles": "COc1ccc(/C=C\\c2cc(OC)c(OC)c(OC)c2)cc1OP(=O)(O)O", "note": "[CA4P, combretastatin A-4 phosphate]", "values": [{"measurement": "Rr", "setting": "[1]; Table 2, relative resistance SK-OV-3 MDR-1-6/6 vs SK-OV-3", "value": 1.5}, {"measurement": "IC50", "setting": "[1]; read-out: SK-OV-3 MDR-1-6/6 IC50, Table 2, P-gp expressing line", "value": "6.6 ± 1.3", "unit": "nM"}, {"measurement": "Rr", "setting": "[2]; Table 3, relative resistance WT β-III vs HeLa", "value": 1.2}, {"measurement": "IC50", "setting": "[2]; Table 3, β-III tubulin expressing line, read-out: WT β-III IC50", "value": "5.7 ± 0.4", "unit": "nM"}, {"measurement": "IC50", "setting": "HeLa cells [3]", "value": "4.7 ± 0.2", "unit": "nM"}, {"measurement": "IC50", "setting": "SK-OV-3 cells [4]", "value": "4.5 ± 0.2", "unit": "nM"}]}, {"smiles": "COc1ccc(/C=C\\c2cc(OC)c(OC)c(OC)c2)cc1O", "note": "[CA-4, combretastatin A-4]", "values": [{"measurement": "IC50", "setting": "MDA-MB-435 cells", "value": "4.4 ± 0.46", "unit": "nM"}, {"measurement": "Rr", "setting": "[5]", "value": 1.38}, {"measurement": "IC50", "setting": "[5]", "value": "2.5 ± 0.7", "unit": "nM"}, {"measurement": "EC50", "setting": "[6]", "value": 9.8, "unit": "nM"}, {"measurement": "Rr", "setting": "[7]", "value": 1}, {"measurement": "IC50", "setting": "Wild type HeLa cells", "value": "1.8 ± 0.4", "unit": "nM"}, {"measurement": "IC50", "setting": "OVCAR-8 cells; read-out: IC50 ± SD Parental OVCAR-8", "value": "6 ± 0.7", "unit": "nM"}, {"measurement": "Rr", "setting": "[8]", "value": 1.5}, {"measurement": "IC50", "setting": "[8]; SRB assay", "value": "9 ± 2", "unit": "nM"}]}, {"smiles": "CC(=O)O[C@H]1C(=O)[C@@]2(C)[C@H]([C@H](OC(=O)c3ccccc3)[C@]3(O)C[C@H](OC(=O)[C@H](O)[C@@H](NC(=O)c4ccccc4)c4ccccc4)C(C)=C1C3(C)C)[C@]1(OC(C)=O)CO[C@@H]1C[C@@H]2O", "note": "[Paclitaxel]", "values": [{"measurement": "Rr", "setting": "[9]", "value": 240}, {"measurement": "IC50", "setting": "[5]; Homo sapiens, HeLa", "value": "16 ± 1", "unit": "nM"}, {"measurement": "Rr", "setting": "[5]", "value": 3.01}, {"measurement": "IC50", "setting": "[7]; Homo sapiens, HeLa, Table 6, β-III tubulin expressing line, read-out: IC50 ± SD in HeLa WTβ-III", "value": "24 ± 3", "unit": "nM"}, {"measurement": "Rr", "setting": "[7]", "value": 8.6}, {"measurement": "IC50", "setting": "HeLa cells [10]", "value": "2.8 ± 0.36", "unit": "nM"}, {"measurement": "IC50", "setting": "Wild type HeLa cells; Homo sapiens, HeLa", "value": "5.3 ± 2", "unit": "nM"}, {"measurement": "IC50", "setting": "OVCAR-8 cells; Homo sapiens, OVCAR-8, read-out: IC50 ± SD Parental OVCAR-8", "value": 10, "unit": "nM"}, {"measurement": "IC50", "setting": "SK-OV-3 cells [11]", "value": "5 ± 0.6", "unit": "nM"}, {"measurement": "IC50", "setting": "[8]; Homo sapiens, NCI/ADR-RES", "value": 5000, "unit": "nM"}, {"measurement": "Rr", "setting": "[8]", "value": 500}]}, {"smiles": "COc1cc(NCc2ccc3nc(N)nc(N)c3c2C)cc(OC)c1OC", "note": "[TMQ, Trimetrexate]", "values": [{"measurement": "IC50", "setting": "recombinant pjDHFR", "value": 2.1, "unit": "nM"}]}]}
